Measured values: US20010053796A1, “Delta-aminolevulinic acid for prevention and treatment of infection microorganisms and parasite” (priority 2000, published 2001)
Like-named read-outs stand apart in the source and are kept apart here.

Tested on: Scutica
Test: Extinction effect for Scutica in vitro
Type: cell-based
Procedure: Scutica used in this experiment was taken from epidermal mucus of infected flatfish and suspended in HBSS. The suspension was kept at room temperature for 30 min and centrifuged at 800 rpm for 10 min. The supernatant was removed. The pellet was suspended in MEM-10 (minimum essential medium, 10% FBS, streptomycine, penicilin) and kept for 30 min, and then centrifuged in the same manner as above. The supernatant was removed and left imagoes was gained and made into imagoes suspension with certain number of imagoes by counting with the blood counting machine. The imagoes suspension was subcultured in vitro and inoculated to prepared FHM cell of certain number (2.5×10^5 cells/mL) and then cultured at 17° C. Before carrying out the experiment, by measuring the extinction effect for Scutica according to the concentration of δ-aminolevulinic acid and reaction time, optimum δ-aminolevulinic acid concentration and treatment time was examined for Scutica extermination. The Scutica culture solution cultured in FHM cell line was centrifuged at 3000 rpm for 5 min. The supernatant was removed and was added to PBS. It was washed 3 times to use for the experiment. 1.0 M δ-aminolevulinic acid solution made from sterilized 3rd distilled water was diluted by 2-fold up to 1000-fold (1.0 mM). Scutica was added to each well of 96-well microplate at an amount of 50 μL. Then, δ-aminolevulinic acid solution diluted by 2 steps were added and cultured for 120 min while the viability of Scutica was monitored. During the culture for 120 min, extinction time was measured in 10 min intervals, at each concentration. Between each inoculation, they were stirred for 5 min and were kept for 5 min. after reaction, 1% trypan blue which is staining solution for organism was added to each wells at an amount of 100 μL and mixed. In cultured Scutica with the diluted solution of δ-aminolevulinic acid, the number of parasites was counted by the blood counting machine, according to time. […] Through the 60 min-treatment, more than 50% of Scutica were extinct. At the actual concentration of 2 mM, about 50% of Scutica was extinct through 1 hour-treatment.

NCC(=O)CCC(=O)O [δ-aminolevulinic acid]
Scutica extinct (500 mM to 2 mM, treatment of at minimum 2 hours): more than 90% | time to completely extinct Scutica (30˜15 mM): 20 min | time to completely extinct Scutica (500 to 60 mM): 10 min | Scutica extinct (60 min-treatment, concentration not given): more than 50% | Scutica extinct (actual concentration of 2 mM, 1 hour-treatment): about 50% | time to completely extinct Scutica (actual concentration of 8 mM): 60 min | viability at 2000 µM (read-out: Viability (%) of Scutica, 2.0 mM, reaction time 10): 50% | viability at 2000 µM (read-out: Viability (%) of Scutica, 2.0 mM, reaction time 20): 60% | viability at 2000 µM (read-out: Viability (%) of Scutica, 2.0 mM, reaction time 30): 40% | viability at 2000 µM (read-out: Viability (%) of Scutica, 2.0 mM, reaction time 40): 45% | viability at 2000 µM (read-out: Viability (%) of Scutica, 2.0 mM, reaction time 50): 35% | viability at 2000 µM (read-out: Viability (%) of Scutica, 2.0 mM, reaction time 60): 55% | viability at 2000 µM (read-out: Viability (%) of Scutica, 2.0 mM, reaction time 70): 40% | viability at 2000 µM (read-out: Viability (%) of Scutica, 2.0 mM, reaction time 80): 40% | viability at 2000 µM (read-out: Viability (%) of Scutica, 2.0 mM, reaction time 90): 35% | viability at 2000 µM (read-out: Viability (%) of Scutica, 2.0 mM, reaction time 110): 40% | viability at 2000 µM (read-out: Viability (%) of Scutica, 2.0 mM, reaction time 120): 10% | viability at 4000 µM (read-out: Viability (%) of Scutica, 4.0 mM, reaction time 10): 50% | viability at 4000 µM (read-out: Viability (%) of Scutica, 4.0 mM, reaction time 20): 50% | viability at 4000 µM (read-out: Viability (%) of Scutica, 4.0 mM, reaction time 30): 30% | viability at 4000 µM (read-out: Viability (%) of Scutica, 4.0 mM, reaction time 40): 30% | viability at 4000 µM (read-out: Viability (%) of Scutica, 4.0 mM, reaction time 50): 20% | viability at 4000 µM (read-out: Viability (%) of Scutica, 4.0 mM, reaction time 60): 45% | viability at 4000 µM (read-out: Viability (%) of Scutica, 4.0 mM, reaction time 70): 30% | viability at 4000 µM (read-out: Viability (%) of Scutica, 4.0 mM, reaction time 80): 45% | viability at 4000 µM (read-out: Viability (%) of Scutica, 4.0 mM, reaction time 90): 40% | viability at 4000 µM (read-out: Viability (%) of Scutica, 4.0 mM, reaction time 110): 10% | viability at 4000 µM (read-out: Viability (%) of Scutica, 4.0 mM, reaction time 120): 10% | viability at 8000 µM (read-out: Viability (%) of Scutica, 8.0 mM, reaction time 10): 45% | viability at 8000 µM (read-out: Viability (%) of Scutica, 8.0 mM, reaction time 20): 50% | viability at 8000 µM (read-out: Viability (%) of Scutica, 8.0 mM, reaction time 30): 45% | viability at 8000 µM (read-out: Viability (%) of Scutica, 8.0 mM, reaction time 40): 25% | viability at 8000 µM (read-out: Viability (%) of Scutica, 8.0 mM, reaction time 50): 40% | viability at 8000 µM (read-out: Viability (%) of Scutica, 8.0 mM, reaction time 60): 40% | viability at 8000 µM (read-out: Viability (%) of Scutica, 8.0 mM, reaction time 70): 0% | viability at 8000 µM (read-out: Viability (%) of Scutica, 8.0 mM, reaction time 80): 0% | viability at 8000 µM (read-out: Viability (%) of Scutica, 8.0 mM, reaction time 90): 0% | viability at 8000 µM (read-out: Viability (%) of Scutica, 8.0 mM, reaction time 110): 0% | viability at 8000 µM (read-out: Viability (%) of Scutica, 8.0 mM, reaction time 120): 0% | viability at 15000 µM (read-out: Viability (%) of Scutica, 15 mM, reaction time 10): 30% | viability at 15000 µM (read-out: Viability (%) of Scutica, 15 mM, reaction time 20): 0% | viability at 15000 µM (read-out: Viability (%) of Scutica, 15 mM, reaction time 30): 0% | viability at 15000 µM (read-out: Viability (%) of Scutica, 15 mM, reaction time 40): 0% | viability at 15000 µM (read-out: Viability (%) of Scutica, 15 mM, reaction time 50): 0% | viability at 15000 µM (read-out: Viability (%) of Scutica, 15 mM, reaction time 60): 0% | viability at 15000 µM (read-out: Viability (%) of Scutica, 15 mM, reaction time 70): 0% | viability at 15000 µM (read-out: Viability (%) of Scutica, 15 mM, reaction time 80): 0% | viability at 15000 µM (read-out: Viability (%) of Scutica, 15 mM, reaction time 90): 0% | viability at 15000 µM (read-out: Viability (%) of Scutica, 15 mM, reaction time 110): 0% | viability at 15000 µM (read-out: Viability (%) of Scutica, 15 mM, reaction time 120): 0% | viability at 30000 µM (read-out: Viability (%) of Scutica, 30 mM, reaction time 10): 20% | viability at 30000 µM (read-out: Viability (%) of Scutica, 30 mM, reaction time 20): 0% | viability at 30000 µM (read-out: Viability (%) of Scutica, 30 mM, reaction time 30): 0% | viability at 30000 µM (read-out: Viability (%) of Scutica, 30 mM, reaction time 40): 0% | viability at 30000 µM (read-out: Viability (%) of Scutica, 30 mM, reaction time 50): 0% | viability at 30000 µM (read-out: Viability (%) of Scutica, 30 mM, reaction time 60): 0% | viability at 30000 µM (read-out: Viability (%) of Scutica, 30 mM, reaction time 70): 0% | viability at 30000 µM (read-out: Viability (%) of Scutica, 30 mM, reaction time 80): 0% | viability at 30000 µM (read-out: Viability (%) of Scutica, 30 mM, reaction time 90): 0% | viability at 30000 µM (read-out: Viability (%) of Scutica, 30 mM, reaction time 110): 0% | viability at 30000 µM (read-out: Viability (%) of Scutica, 30 mM, reaction time 120): 0% | viability at 60000 µM (read-out: Viability (%) of Scutica, 60 mM, reaction time 10): 0% | viability at 60000 µM (read-out: Viability (%) of Scutica, 60 mM, reaction time 20): 0% | viability at 60000 µM (read-out: Viability (%) of Scutica, 60 mM, reaction time 30): 0% | viability at 60000 µM (read-out: Viability (%) of Scutica, 60 mM, reaction time 40): 0% | viability at 60000 µM (read-out: Viability (%) of Scutica, 60 mM, reaction time 50): 0% | viability at 60000 µM (read-out: Viability (%) of Scutica, 60 mM, reaction time 60): 0% | viability at 60000 µM (read-out: Viability (%) of Scutica, 60 mM, reaction time 70): 0% | viability at 60000 µM (read-out: Viability (%) of Scutica, 60 mM, reaction time 80): 0% | viability at 60000 µM (read-out: Viability (%) of Scutica, 60 mM, reaction time 90): 0% | viability at 60000 µM (read-out: Viability (%) of Scutica, 60 mM, reaction time 110): 0% | viability at 60000 µM (read-out: Viability (%) of Scutica, 60 mM, reaction time 120): 0% | viability at 125000 µM (read-out: Viability (%) of Scutica, 125 mM, reaction time 10): 0% | viability at 125000 µM (read-out: Viability (%) of Scutica, 125 mM, reaction time 20): 0% | viability at 125000 µM (read-out: Viability (%) of Scutica, 125 mM, reaction time 30): 0% | viability at 125000 µM (read-out: Viability (%) of Scutica, 125 mM, reaction time 40): 0% | viability at 125000 µM (read-out: Viability (%) of Scutica, 125 mM, reaction time 50): 0% | viability at 125000 µM (read-out: Viability (%) of Scutica, 125 mM, reaction time 60): 0% | viability at 125000 µM (read-out: Viability (%) of Scutica, 125 mM, reaction time 70): 0% | viability at 125000 µM (read-out: Viability (%) of Scutica, 125 mM, reaction time 80): 0% | viability at 125000 µM (read-out: Viability (%) of Scutica, 125 mM, reaction time 90): 0% | viability at 125000 µM (read-out: Viability (%) of Scutica, 125 mM, reaction time 110): 0% | viability at 125000 µM (read-out: Viability (%) of Scutica, 125 mM, reaction time 120): 0% | viability at 250000 µM (read-out: Viability (%) of Scutica, 250 mM, reaction time 10): 0% | viability at 250000 µM (read-out: Viability (%) of Scutica, 250 mM, reaction time 20): 0% | viability at 250000 µM (read-out: Viability (%) of Scutica, 250 mM, reaction time 30): 0% | viability at 250000 µM (read-out: Viability (%) of Scutica, 250 mM, reaction time 40): 0% | viability at 250000 µM (read-out: Viability (%) of Scutica, 250 mM, reaction time 50): 0% | viability at 250000 µM (read-out: Viability (%) of Scutica, 250 mM, reaction time 60): 0% | viability at 250000 µM (read-out: Viability (%) of Scutica, 250 mM, reaction time 70): 0% | viability at 250000 µM (read-out: Viability (%) of Scutica, 250 mM, reaction time 80): 0% | viability at 250000 µM (read-out: Viability (%) of Scutica, 250 mM, reaction time 90): 0% | viability at 250000 µM (read-out: Viability (%) of Scutica, 250 mM, reaction time 110): 0% | viability at 250000 µM (read-out: Viability (%) of Scutica, 250 mM, reaction time 120): 0% | viability at 500000 µM (read-out: Viability (%) of Scutica, 500 mM, reaction time 10): 0% | viability at 500000 µM (read-out: Viability (%) of Scutica, 500 mM, reaction time 20): 0% | viability at 500000 µM (read-out: Viability (%) of Scutica, 500 mM, reaction time 30): 0% | viability at 500000 µM (read-out: Viability (%) of Scutica, 500 mM, reaction time 40): 0% | viability at 500000 µM (read-out: Viability (%) of Scutica, 500 mM, reaction time 50): 0% | viability at 500000 µM (read-out: Viability (%) of Scutica, 500 mM, reaction time 60): 0% | viability at 500000 µM (read-out: Viability (%) of Scutica, 500 mM, reaction time 70): 0% | viability at 500000 µM (read-out: Viability (%) of Scutica, 500 mM, reaction time 80): 0% | viability at 500000 µM (read-out: Viability (%) of Scutica, 500 mM, reaction time 90): 0% | viability at 500000 µM (read-out: Viability (%) of Scutica, 500 mM, reaction time 110): 0% | viability at 500000 µM (read-out: Viability (%) of Scutica, 500 mM, reaction time 120): 0%
